Measured values: PMC12122562, “Phase 1 studies of the indenoisoquinolines LMP776 and LMP744 in patients with solid tumors and lymphomas” (Cancer Chemotherapy and Pharmacology, 2025)

Biological target: T1, TOP1cc (Homo sapiens, UniProt P11387)
T1 construct: paired pre-treatment and on-treatment tumor biopsies (C1D2, 2–4 h after dosing) from 6 patients receiving LMP744 at the MTD; from tissue; host or cells: core needle tumor biopsies from patients (LMP744 expansion cohort)
T1 sequence (P11387 2-765 limits assumed): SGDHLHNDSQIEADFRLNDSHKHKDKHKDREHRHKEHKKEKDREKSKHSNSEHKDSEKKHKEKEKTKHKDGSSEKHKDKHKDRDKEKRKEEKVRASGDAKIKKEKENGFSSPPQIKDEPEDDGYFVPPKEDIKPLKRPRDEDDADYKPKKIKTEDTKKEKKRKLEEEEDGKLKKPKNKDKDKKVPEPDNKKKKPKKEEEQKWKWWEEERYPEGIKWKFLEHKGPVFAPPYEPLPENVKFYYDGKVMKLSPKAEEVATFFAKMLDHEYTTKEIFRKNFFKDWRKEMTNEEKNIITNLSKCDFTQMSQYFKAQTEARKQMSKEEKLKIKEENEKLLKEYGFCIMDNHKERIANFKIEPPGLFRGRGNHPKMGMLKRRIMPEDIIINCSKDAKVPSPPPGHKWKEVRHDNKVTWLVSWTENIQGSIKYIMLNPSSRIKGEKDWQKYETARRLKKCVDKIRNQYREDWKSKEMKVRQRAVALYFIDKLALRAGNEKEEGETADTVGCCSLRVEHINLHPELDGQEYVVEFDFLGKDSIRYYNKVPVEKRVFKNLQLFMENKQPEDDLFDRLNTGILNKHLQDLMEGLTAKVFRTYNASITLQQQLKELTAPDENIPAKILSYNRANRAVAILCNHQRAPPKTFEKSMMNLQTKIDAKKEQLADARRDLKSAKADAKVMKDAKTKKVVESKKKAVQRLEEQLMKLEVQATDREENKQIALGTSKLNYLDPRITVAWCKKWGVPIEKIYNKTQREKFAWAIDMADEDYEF
Test: qIF of paired tumor biopsies: TOP1cc foci
Assay type: in vivo
Conditions: for TOP1cc: C1D2
Description: The LMP744 protocol collected pre-treatment (baseline) and on-treatment paired biopsies from patients in the expansion cohort. Core needle tumor biopsies (18-gauge) were collected and flash-frozen at point of collection per NCI SOPs (https://dctd.cancer.gov/ResearchResources/biomarkers/docs/par/SOP340507_Biopsy_Frozen.pdf) as described to preserve labile post-translational modifications such as phosphorylation. Biopsy pairs were thawed in formalin, fixed in paraffin embedded together with control tissues following NCI SOP340550 (https://dctd.cancer.gov/ResearchResources/biomarkers/DDR3/SOP340550_Biopsy_Section_Testis_Jejunum_Controls.pdf). TOP1 and TOP1cc were measured with a cocktail containing custom-conjugated rabbit monoclonal antibody anti-TOP1-DIG (Abcam, EPR5376 (2)) and mouse monoclonal antibody anti-TOP1cc (clone 1.1A [34, 35], EMD Millipore) that were detected with reporter secondary antibodies AlexaFluor-647 IgG fraction monoclonal mouse anti-digoxin (Jackson ImmunoResearch) and goat/anti-mouse AlexaFluor-488, respectively. Phosphorylated KAP1 (pKAP1, phosphorylated at S824) was measured using custom-conjugated pKAP1-pS824-DNP (Abcam, EPR5248) and detected with AlexaFluor-488 conjugated with anti-dinitrophenyl-KLH rabbit IgG Antibody Fraction (DNP-488, ThermoFisher). […] TOP1, γH2AX, pNBS1, and pKAP1 were measured as the percentage of DAPI-stained tumor cell nuclear area that was positive for the biomarker (% NAP); RAD51 [19] and TOP1cc was measured as a function of the percentage of nuclei with ≥ 5 foci (RAD51) or ≥ 19 foci (TOP1cc). Apoptosis was measured using a validated IFA of tumor cells positive for both cCasp3 blebbing in the cytoplasm and γH2AX in the nucleus. Anti-SLFN11 rabbit monoclonal antibody (Cell Signaling Technology, clone D8W1B) was detected by immunohistochemistry (IHC) using Bond Polymer Detection kit (Leica) and scanned in 20X widefield Aperio (Leica), and the distribution of staining intensity of tumor cell nuclei graded as 0, 1 + , 2 + or 3 + was converted into an H-score. […]

With `COc1cc2c3c(n(CCCNCCO)c(=O)c2cc1OC)-c1cc2c(cc1C3=O)OCO2` [LMP744] the “TOP1cc, change in the biopsy cohort” value (6 patients at MTD, P = 0.1373) was “no significant changes”, the TOP1cc (patient 29, MTD) was “neither biomarker changed with treatment” and the TOP1cc (patient 31, MTD) was “decreased nearly to background levels”.
